Source: US9211485B2, “Method for producing crystalline active ingredient particles” (Jesalis Pharma GmbH, priority 2010, dated 2015)

Key:
Format in all cases: physicochemical
[1] = Particle size distribution by laser diffraction, wet measurement (Malvern Mastersizer E); details: for d50 / d90 / d10: dried product, laser diffraction wet measurement; for d50: average particle size; for d10: vol.-%; for span: span=(d90−d10)/d50
Procedure: The particle size and the particle size distribution (grain-size distribution) are determined with the help of a customary laser diffraction in a wet measurement which delivers a distribution curve of the particle sizes (Malvern System, Mastersizer E, wet measurement in the cuvette). dx means that x volume percent (vol.-%) of the particles have a diameter which is smaller than the given value. With a d50 value of 1 μm 50 vol.-% of the particles thus have a diameter of less than 1 μm (micrometer). The d50 value is a measure of the average (volume average) particle diameter and is therefore also called average particle diameter. With a d10 of 15 μm and a d90 of 50 μm 10 vol.-% of the particles have a diameter of less than 15 μm and 90 vol.-% of the particles have a diameter of less than 50 μm.
Sample preparation for wet measurement of the particle size and particle size distribution: 12.5 mg sample is dispersed in 25 ml aqueous surfactant solution (0.1% Tween 80 in water, saturated with active ingredient and filtered over a 0.2 μm filter) by means of ultrasound sonotrode (Hielscher, d=7 mm, 30% output) for 4 min. The thus-obtained suspension is added dropwise, accompanied by stirring, to the measuring vessel which contains filtered surfactant solution, until the obscuration (clouding) reaches 10% and the particle size distribution is determined by the above-described laser diffraction. An average value is determined from five measurements.
An advantage of the method according to embodiments of the invention is the generation of a very narrow particle size distribution. Additionally, largely agglomerate-free particles are obtained. This is achieved by the synchronous counterrotation of destructive grinding and ultrasound processes on the one hand and constructive crystal growth on the other hand. In the region of coarse grain sizes and agglomerates, above all the disintegration effect (grinding process and ultrasound) acts primarily in the direction of a reduction, and in the fine-grain region the crystal growth acts in the direction of an increase in the particle size. Thus, very narrow particle size distributions are achieved. The width of a particle size distribution (span) is defined as follows: span=(d90−d10)/d50.

[2] = Agglomeration factor: d90 (Ultra Turrax stirrer) / d90 (ultrasound sonotrode); details: d90(agglomerated particles)/d90(non-agglomerated particles)
Excerpt: The degree of agglomeration of the crystallized active ingredient particles is described by the agglomeration factor (AGF). This is defined by the quotient of the diameter of the agglomerated particles and of the diameter of the non-agglomerated particles. This method is most informative for agglomeration when comparing the d90 values. The agglomeration factor within the meaning of the present invention is therefore defined as follows: Agglomeration factor=d90(agglomerated particles)/d90(non-agglomerated particles)
These two d90 values are determined by different energy input into the sample to be tested.
With a high input of energy, existing agglomerates decompose and the following particle size measurement delivers the d90 of the non-agglomerated particles. […]
With a low energy input on the other hand agglomerates are largely spared and the following particle size measurement delivers the d90(agglomerated particles). […] The thus-obtained suspension is added dropwise accompanied by stirring to the measuring vessel which contains filtered surfactant solution, until the obscuration reaches 10% and the particle size distribution is determined by the above-described laser diffraction. An average value is determined from five measurements. […]

[3] = Crystallinity by X-ray powder diffractometry (XRPD) relative to a reference material; details: relative to reference sample
Procedure: The crystallinity is determined by means of X-ray powder diffractometry (XRPD) (apparatus: Siemens D8, fixed sample position). After background correction the integral intensities in the X-ray diffractogram are compared with those of a reference material. This reference material can for example be a conventional precipitation product or a product according to a different production method with known crystallinity and granulation. Thus the crystallinity is a relative value which characterizes the degree of order compared with a reference sample. The relationship of the integral reflex intensities of particle sample and reference sample is therefore the quantitative expression of its difference in crystallinity.

Row | d50 [1] [μm] | d90 [1] [μm] | d10 [1] [μm] | span [1] | AGF (agglomeration factor) [2] | crystallinity [3] [%] | SMILES
1 | 26 | 45 | 10 | 1.3 | 1.1 | 100 | CC(=O)[C@H]1CC[C@H]2[C@@H]3CCC4=CC(=O)CC[C@]4(C)[C@H]3CC[C@]12C [Example 2, progesterone]
2 | 34 | 64 | 12 | 1.5 | 1.3 | 100 | CC(=O)[C@H]1CC[C@H]2[C@@H]3CCC4=CC(=O)CC[C@]4(C)[C@H]3CC[C@]12C [Example 1, progesterone]
